{"source": "patent US10576102B2", "about": "“KOC1-derived peptide and vaccine including same” (ONCOTHERAPY SCIENCE, INC., priority 2014, dated 2020)", "assay_type_in_all_cases": "cell-based, human", "key": {"peptide-pulsed C1R-A11 [1]": {"system": "peptide-pulsed C1R-A11", "test": "In vitro CTL induction, IFN-gamma ELISPOT assay (HLA-A*1101)", "details": "CTLs induced with peptide-pulsed DCs from HLA-A*1101-positive volunteers; day 21; vs peptide-pulsed C1R-A11, compared with unpulsed control", "description": "C1R (C1R-A11) that stably expresses HLA-A*1101 was used as a stimulator cell. A cDNA encoding the open-reading frame of HLA-A*1101 was amplified by PCR and cloned into an expression vector. C1R cells were transfected with the expression vector, and then selected using G418 (Invitrogen) for two weeks. The G418-selected cells were seeded into wells containing G418-added culture medium in a 96-well plate, and further cultured for 30 days. The exogenous HLA-A*1101 expression in C1R cells was verified by flow cytometric analysis.\n(§1) Monocyte-derived dendritic cells (DCs) were used as the antigen-presenting cell to induce a cytotoxic T lymphocyte (CTL) response against peptides presented on human leukocyte antigens (HLAs). As described in the other sections, DCs were generated in vitro (Nakahara S et al., Cancer Res 2003, 63(14): 4112-8). Specifically, peripheral-blood mononuclear cells isolated from healthy volunteers (HLA-A*1101-positive) with the Ficoll-Paque plus solution (Pharmacia) were separated by attaching to plastic tissue culture dishes (Becton Dickinson) and concentrated as a monocyte fraction. The monocyte-concentrated population was cultured in the presence of 1000 IU/ml granulocyte macrophage colony-stimulating factor (R&D System) and 1000 IU/ml interleukin(IL)-4 (R&D System) in an AIM-V medium (Invitrogen) containing 2% heat-inactivated autologous serum (AS). After seven days of culturing, the cytokine-induced DCs were pulsed with 20 micro-g/ml each of the synthesized peptides in an AIM-V medium at 37 degrees C. for three hours in the presence of 3 micro-g/ml beta 2-microglobulin. The generated cells appeared to express on their cell surface DC-associated molecules such as CD80, CD83, CD86 and HLA class II (data not shown). Next, these peptide-pulsed DCs were inactivated, by X-ray irradiation (20 Gy), and mixed in a 1:20 ratio with autologous CD8^+ T cells obtained by positive selection using the CD8 Positive Isolation Kit (Dynal). These culture products were seeded in a 48-well plate (Corning). Each well was made to contain 1.5×10^4 peptide-pulsed DCs, 3×10^5 CD8^+ T cells and 10 ng/ml IL-7 (R&D System) in 0.5 ml of the AIM-V/2% AS medium. Three days later, these culture products were added with a final concentration of 20 IU/ml IL-2 (CHIRON). On day 7 and day 14, T cells were further stimulated with peptide-pulsed autologous DCs. The DCs were prepared every time by the same method as above. On day 21, after the third peptide stimulation, CTLs were examined against the peptide-pulsed C1R-A11 by a human interferon (IFN)-gamma enzyme-linked immunospot (ELISPOT) assay (Tanaka H et al., Br J Cancer 2001, 84(1): 94-9; Umano Y et al., Br J Cancer 2001, 84(8): 1052-7; Uchida N et al., Clin Cancer Res 2004, 10(24): 8577-86; Suda T et al., Cancer Sci 2006, 97(5): 411-9; Watanabe T et al., Cancer Sci 2005, 96(8): 498-506).\n(§2) Specifically, peptide-pulsed C1R-A11 (1×10^4 cells/well) was prepared as the stimulator cell. The induced CTLs, i.e., CTL lines and CTL clones, were used as the responder cell. The IFN-gamma ELISPOT assay and IFN-gamma ELISA were performed according to the manufacturer's manual."}, "peptide-pulsed C1R-A03": {"system": "peptide-pulsed C1R-A03", "test": "In vitro CTL induction, IFN-gamma ELISPOT assay (HLA-A*0301)", "details": "CTLs induced with peptide-pulsed DCs from HLA-A*0301-positive volunteers; day 21; vs peptide-pulsed C1R-A03, compared with unpulsed control; listed as KOC1-A03-10-414", "description": "C1R (C1R-A03) that stably expresses HLA-A*0301 was used as a stimulator cell. A cDNA encoding the open-reading frame of HLA-A*0301 was amplified by PCR and cloned into an expression vector. C1R cells were transfected with the expression vector, and then selected using G418 (Invitrogen) for two weeks. The G418-selected cells were seeded into wells containing G418-added culture medium in a 96-well plate, and further cultured for 30 days. The exogenous HLA-A*0301 expression in C1R cells was verified by flow cytometric analysis.\nas §1, with “(HLA-A*0301-positive)” for “(HLA-A*1101-positive)”, “inactivated” for “inactivated,”, “On day 21, after the third peptide stimulation, CTLs were examined against the peptide-pulsed C1R-A11 by a human interferon (IFN)-gamma enzyme-linked immunospot (ELISPOT) assay (Tanaka H et al., Br J Cancer 2001, 84(1): 94-9; Umano Y et al., Br J Cancer 2001, 84(8): 1052-7; Uchida N et al., Clin Cancer Res 2004, 10(24): 8577-86; Suda T et al., Cancer Sci 2006, 97(5): 411-9; Watanabe T et al., Cancer Sci 2005, 96(8): 498-506).” left out"}, "peptide-pulsed C1R-A11 [2]": {"system": "peptide-pulsed C1R-A11", "test": "IFN-gamma ELISA of CTL lines and CTL clones (HLA-A*1101)", "description": "CTLs were propagated in culture using methods similar to those disclosed by Riddell et al. (Walter E A et al., N Engl J Med 1995, 333(16): 1038-44; Riddell S R et al., Nat Med 1996, 2(2): 216-23). The CTLs were co-cultured in a total of 25 ml AIM-V medium containing 5% AS (AIM-V/5% AS) and 40 ng/ml anti-CD3 antibody with two types of Mitomycin C-treated human B lymphoblastoid cell lines at 5×10^6 cells/flask. One day after beginning of the culturing, 120 IU/ml IL-2 was added to the culture. On days 5, 8 and 11, a fresh AIM-V/5% AS medium containing 30 IU/ml IL-2 was added to the culture (Tanaka H et al., Br J Cancer 2001, 84(1): 94-9; Umano Y et al., Br J Cancer 2001, 84(8): 1052-7; Uchida N et al., Clin Cancer Res 2004, 10(24): 8577-86; Suda T et al., Cancer Sci 2006, 97(5): 411-9; Watanabe T et al., Cancer Sci 2005, 96(8): 498-506).\nDilution of CTLs was carried out to make 0.3, 1 and 3 cells/well in 96 round-bottomed microtiter plates (Nalge Nunc International). The CTLs were co-cultured with two types of Mitomycin C-treated human B lymphoblastoid cell lines at 1×10^4 cells/well in a total of 150 micro-1/well AIM-V/5% AS medium with 30 ng/ml anti-CD3 antibody and 125 IU/ml IL-2. Ten days later, IL-2 was added to the medium at 50 micro-1/well to reach a final concentration of 125 IU/ml. On day 14, the CTL activity was tested, and the CTL clones were propagated using the same method as described above (Uchida N et al., Clin Cancer Res 2004, 10(24): 8577-86; Suda T et al., Cancer Sci 2006, 97(5): 411-9; Watanabe T et al., Cancer Sci 2005, 96(8): 498-506).\nas §2"}}, "note": "“Also recorded” adds a separate entry of the source.", "data": [{"sequence": "ALSVGAIIGK (a peptide derived from KOC1) [SEQ ID NO: 28]", "values": [{"measurement": "peptide-specific CTL activity (IFN-gamma production), ELISPOT", "setting": "peptide-pulsed C1R-A11 [1]", "result": "potent IFN-gamma production"}, {"measurement": "peptide-specific CTL activity (IFN-gamma production), ELISPOT", "setting": "peptide-pulsed C1R-A03", "result": "no specific IFN-gamma production; also recorded: specific IFN-gamma production was not observed"}]}, {"sequence": "LSVGAIIGK (a peptide derived from KOC1) [SEQ ID NO: 5]", "values": [{"measurement": "peptide-specific CTL activity (IFN-gamma production), ELISPOT", "setting": "peptide-pulsed C1R-A11 [1]", "result": "potent IFN-gamma production"}, {"measurement": "IFN-gamma production of CTL clones, ELISA", "setting": "peptide-pulsed C1R-A11 [2]; CTL clones by limiting dilution, peptide-pulsed C1R-A11, listed as KOC1-A11-9-415", "result": "Potent IFN-gamma production"}, {"measurement": "IFN-gamma production of CTL lines, ELISA", "setting": "peptide-pulsed C1R-A11 [2]; CTL lines, target cells pulsed with the peptide vs not pulsed, C1R-A11", "result": "potent IFN-gamma production"}]}]}
